For six compounds, IC50 and inhibition results are on record in PMC11903766, “A structure-based framework for selective inhibitor design and optimization” (Communications Biology, 2025).

A word on the inhibition: it is the drop in the measured response relative to a control, in per cent.

Molecules are shown by their SMILES. Where two headings read alike, the source gives them in different places. Some results are limits rather than exact numbers.

The target in test [1] is T1, PARP1 (Homo sapiens, UniProt P09874). Nature of the test: biochemical. The arrangement: PARP1 ELISA on histone-coated plates with NAD+, anti-PAR antibody, HRP chemiluminescence. The method, then:
(§1) S53 Biological Assay Methods PARP1 inhibitory activity assay. The histone coated 384-well plates were prepared by adding 25 µL histone solution to each well and incubating overnight at 4°C. Prepared PBST buffer, blocking buffer, and assay buffer. Washed the histone coated 384-well plate 3 times using PBST buffer solution. It was blocked with 50 µL blocking buffer at room temperature for 1 h. The plate was washed 3 times using PBST buffer. 2000x compounds were prepared in the source plate, and 50nl compound were transferred from the source plate to the 96-well intermediate plate with 19.95ul assay buffer, shaken, and centrifuged at 1000rpm for 1 min. 5 µL DMSO/compound was then transferred to each well. The PARP1 and DNA mixture was incubated for 10 min at 25°C, followed by the addition of 10 µL PARP1 and DNA (except min control), incubated with the compound for 10 min at RT, and 10 μL DNA was added to the minimal control of assay plate. Added 10 µL of 2.5x NAD+ to each well and incubated for 60 min at 25°C. The plate was washed 3 times with PBST buffer and then assayed. Added 20 µL of anti-Poly/Mono-ADP Ribose Rabbit mAb. […] Read chemiluminescence on Envision immediately after adding 25 µL of Femto-ECL Substrate A and Femto-ECL Substrate B (1:1) mix. The IC50 values were calculated by analyzing the concentration-response curves. […]

For test [2], the target named is T2, PARP2 (Homo sapiens, UniProt Q9UGN5). Nature of the test: biochemical. More on the design: PARP2 ELISA on histone-coated plates with biotin-NAD+, streptavidin-HRP chemiluminescence. The method, then: (§2) S54 PARP2 inhibitory activity assay. The histone coated 384-well plates were prepared by adding 25 µL histone solution to each well and incubating overnight at 4°C. Prepared PBST buffer, blocking buffer, and assay buffer. Washed the histone coated 384-well plate 3 times using PBST buffer solution. It was blocked with 50 µL blocking buffer at room temperature for 1 h. The plate was washed 3 times using PBST buffer. 2000x compounds were prepared in the source plate, and 50nl compound were transferred from the source plate to the 96-well intermediate plate with 19.95ul assay buffer, shaken, and centrifuged at 1000rpm for 1 min. 5 µL DMSO/compound was then transferred to each well. The PARP2 mixture was incubated for 10 min at 25°C, followed by the addition of 10 µL PARP2 (except min control), incubated with the compound for 10 min at RT, and 10 µL assay buffer was added to the minimal control of assay plate. Added 10 µL of 2.5x Biotin-NAD+ to each well and incubated for 90 min at 25°C. The plate was washed 3 times with PBST buffer and then assayed. Added 25 µL of Stre-HRP. Incubated for 1 h at RT and washed the plate 3 times with PBST buffer. Read chemiluminescence on Envision immediately after adding 25 µL of Femto-ECL Substrate A and Femto-ECL Substrate B (1:1) mix. The IC50 values were calculated by analyzing the concentration-response curves.
T2 sequence (Q9UGN5 whole entry): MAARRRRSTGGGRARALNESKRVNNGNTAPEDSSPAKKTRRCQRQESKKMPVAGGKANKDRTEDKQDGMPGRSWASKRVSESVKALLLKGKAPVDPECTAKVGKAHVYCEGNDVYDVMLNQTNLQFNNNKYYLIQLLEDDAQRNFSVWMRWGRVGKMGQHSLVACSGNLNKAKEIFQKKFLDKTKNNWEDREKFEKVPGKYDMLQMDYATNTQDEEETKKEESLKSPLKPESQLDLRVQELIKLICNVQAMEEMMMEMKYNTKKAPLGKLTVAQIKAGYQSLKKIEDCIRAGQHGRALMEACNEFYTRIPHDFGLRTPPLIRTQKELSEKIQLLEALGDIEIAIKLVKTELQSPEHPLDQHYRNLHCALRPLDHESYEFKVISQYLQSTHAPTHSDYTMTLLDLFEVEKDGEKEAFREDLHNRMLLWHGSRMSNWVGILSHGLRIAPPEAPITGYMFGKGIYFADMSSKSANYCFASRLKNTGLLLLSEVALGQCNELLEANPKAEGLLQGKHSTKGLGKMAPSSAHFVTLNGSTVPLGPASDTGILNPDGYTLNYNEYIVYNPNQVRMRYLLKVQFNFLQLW

Test [3] has as its target T1, PARP1. Nature of the test: biochemical. More on the design: PARP1 ELISA on histone-coated plates, NAD+, anti-PAR antibody with HRP, chemiluminescence. The method, then: S53 Biological Assay Methods PARP1 inhibitory activity assay. The histone coated 384-well plates were prepared by adding 25 µL histone solution to each well and incubating overnight at 4°C. Prepared PBST buffer, blocking buffer, and assay buffer. Washed the histone coated 384-well plate 3 times using PBST buffer solution. It was blocked with 50 µL blocking buffer at room temperature for 1 h. The plate was washed 3 times using PBST buffer. 2000x compounds were prepared in the source plate, and 50nl compound were transferred from the source plate to the 96-well intermediate plate with 19.95ul assay buffer, shaken, and centrifuged at 1000rpm for 1 min. 5 µL DMSO/compound was then transferred to each well. The PARP1 and DNA mixture was incubated for 10 min at 25°C, followed by the addition of 10 µL PARP1 and DNA (except min control), incubated with the compound for 10 min at RT, and 10 μL DNA was added to the minimal control of assay plate. Added 10 µL of 2.5x NAD+ to each well and incubated for 60 min at 25°C. The plate was washed 3 times with PBST buffer and then assayed. Added 20 µL of anti-Poly/Mono-ADP Ribose Rabbit mAb. Incubated for 1.5 h at RT and washed the plate 3 times with PBST buffer. Then added, 20 µL of diluted (1:2000 in Blocking buffer) anti-rabbit IgG, HRP-linked Antibody. Incubated for 1 h at RT and washed the plate 3 times using PBST buffer. Read chemiluminescence on Envision immediately after adding 25 µL of Femto-ECL Substrate A and Femto-ECL Substrate B (1:1) mix. The IC50 values were calculated by analyzing the concentration-response curves. Fit the data to obtain inhibition values using equation (1) Equation (1): inh %=( Max-Signal)/ (Max-Min)*100 Fit the data to obtain IC50 values using equation (2) Equation (2): Y=Bottom + (Top-Bottom)/(1+(IC50/X)[…]) Y is %inhibition and X is compound concentration.

Test [4] has as its target T2, PARP2. The experiment in a line: biochemical. The arrangement: PARP2 ELISA on histone-coated plates, biotin-NAD+, streptavidin-HRP, chemiluminescence. The method, then: as §2
Test [5] has as its target T1, PARP1. More on the design: PARP1 ELISA on histone-coated plates, NAD+, anti-PAR antibody with HRP, chemiluminescence. The settings on record: inhibitor. How it is done:
as §1

Test [6] concerns the target T2, PARP2. More on the design: PARP2 ELISA on histone-coated plates, biotin-NAD+, streptavidin-HRP, chemiluminescence. The following applies: inhibitor. The method, then: as §2
In test [7] the target is T2, PARP2. Nature of the test: ELISA enzyme inhibition assay. The settings on record: read-out: PARP2 Enzyme / IC50 (nM)^b. The class given is biochemical. A general note: ELISA stands for enzyme-linked immunosorbent assay.
Test [8] has as its target T1, PARP1. The experiment in a line: ELISA enzyme inhibition assay. The settings on record: read-out: PARP1 Enzyme / IC50 (nM)^b. It counts as biochemical.

T1 sequence (P09874 2-1014): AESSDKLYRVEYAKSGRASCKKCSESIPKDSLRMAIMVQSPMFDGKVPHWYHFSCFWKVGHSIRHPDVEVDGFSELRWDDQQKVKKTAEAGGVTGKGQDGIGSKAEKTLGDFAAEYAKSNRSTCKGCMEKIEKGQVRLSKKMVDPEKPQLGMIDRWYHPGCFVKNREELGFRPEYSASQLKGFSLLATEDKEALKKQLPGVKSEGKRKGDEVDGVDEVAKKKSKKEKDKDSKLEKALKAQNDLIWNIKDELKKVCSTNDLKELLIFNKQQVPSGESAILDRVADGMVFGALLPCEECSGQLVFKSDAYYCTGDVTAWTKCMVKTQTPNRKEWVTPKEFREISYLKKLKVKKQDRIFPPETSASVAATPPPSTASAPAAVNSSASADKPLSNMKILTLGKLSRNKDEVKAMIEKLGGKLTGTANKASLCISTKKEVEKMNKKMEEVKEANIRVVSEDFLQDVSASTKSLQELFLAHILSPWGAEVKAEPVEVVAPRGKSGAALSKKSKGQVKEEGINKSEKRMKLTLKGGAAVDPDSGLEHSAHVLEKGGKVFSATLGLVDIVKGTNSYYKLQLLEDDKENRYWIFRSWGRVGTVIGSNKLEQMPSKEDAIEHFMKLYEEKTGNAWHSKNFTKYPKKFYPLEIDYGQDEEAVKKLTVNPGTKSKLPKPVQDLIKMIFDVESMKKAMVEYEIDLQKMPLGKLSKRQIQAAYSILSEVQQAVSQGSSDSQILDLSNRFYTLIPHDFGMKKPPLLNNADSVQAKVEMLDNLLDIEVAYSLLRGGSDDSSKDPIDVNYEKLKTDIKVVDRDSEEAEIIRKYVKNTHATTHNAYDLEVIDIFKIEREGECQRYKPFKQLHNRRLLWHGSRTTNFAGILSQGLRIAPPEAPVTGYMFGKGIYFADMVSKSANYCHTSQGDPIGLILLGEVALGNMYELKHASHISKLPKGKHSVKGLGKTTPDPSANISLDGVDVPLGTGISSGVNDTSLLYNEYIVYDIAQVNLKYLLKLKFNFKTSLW

Turning to `CNC(=O)c1ccc(N2CCN(Cc3ccnc(-c4c[nH]c(=O)c(C)c4)n3)CC2)cn1` [R1], the figures for the IC50 in test [1] and in test [2] were 3370 nM and 255 nM, respectively.

For `CNC(=O)c1ccc(N2CCN(CC#Cc3cccc4cn[nH]c34)CC2)cn1` [Y2], the inhibition at 0.01 µM in test [3] is -0.1%; in test [4], 2.3%. For the same compound, the inhibition at 10 µM in test [3] was determined as 47.4%. The values for the IC50 in test [5] and in test [6] were 9800 nM and greater than 10000 nM, respectively.

In the case of `CCn1c(=O)[nH]c2sc(CN3CCN(c4ccc(C(=O)NC)nc4)CC3)c(C)c2c1=O` [Y4], the inhibition at 0.01 µM in test [3] was 20.7%; in test [4], -1.6%. In test [3], the inhibition at 10 µM was found to be 99%. Besides, the IC50 in test [7] is 741 nM; in test [8], 86.5 nM.

On to `CNC(=O)c1ccc(N2CCN(Cc3ccc4c(c3)[nH]c3ncccc34)CC2)cn1` [Y5], for which the inhibition at 0.01 µM in test [3] is 46%; in test [4] it was 1.4%. Besides, the inhibition at 10 µM in test [3] was 98.8%. Also, the figures for the IC50 in test [8] and in test [6] were 12.7 nM and greater than 10000 nM, respectively.

As for `CCNC(=O)Nc1cc(CN2CCN(c3ccc(C(=O)NC)nc3)CC2)c2ccccc2n1` [Y6], the figures for the inhibition at 0.01 µM in test [3] and in test [4] were 70.5% and 87.6%, respectively. For the same compound, the inhibition at 10 µM in test [3] was determined as 99.1%. In addition, the values for the IC50 in test [7] and in test [8] were 2.4 nM and 6 nM, respectively.

For the compound `O=C(c1ccc(C(F)(F)F)c(=O)[nH]1)N1CCN(c2ccc3cc[nH]c3c2)CC1` [Z5], the inhibition at 0.01 µM is 7.3% in test [3] and -0.8% in test [4]. For the same compound, the inhibition at 10 µM in test [3] stood at 12.7%. Besides, the IC50 in test [5] and in test [6] was greater than 10000 nM in each case.
